Measured values taken from patent US9006252B2, “Fused multicyclic compounds as protein kinase inhibitors” (National Health Research Institutes, priority 2008, dated 2015).
Several values for one entry are separate records, joined by “and”; a condition that tells them apart may be missing. Equal entries are not always repeated.

Legend:
Aurora A = target: T1, Aurora A (Homo sapiens, UniProt O14965); assay: Aurora Kinase A luminescent kinase assay (Kinase-Glo); format: biochemical; settings: IC50 values (concentration of a test compound at which activity of 50% of Aurora A is inhibited), GST-tAurora A (123-401aa) fusion protein
T1 construct: GST-tAurora A (123-401aa) fusion protein obtained above; made in house; host or cells: Sf9 insect cells (baculovirus, pBacPAK8)
T1 sequence (O14965 123-401): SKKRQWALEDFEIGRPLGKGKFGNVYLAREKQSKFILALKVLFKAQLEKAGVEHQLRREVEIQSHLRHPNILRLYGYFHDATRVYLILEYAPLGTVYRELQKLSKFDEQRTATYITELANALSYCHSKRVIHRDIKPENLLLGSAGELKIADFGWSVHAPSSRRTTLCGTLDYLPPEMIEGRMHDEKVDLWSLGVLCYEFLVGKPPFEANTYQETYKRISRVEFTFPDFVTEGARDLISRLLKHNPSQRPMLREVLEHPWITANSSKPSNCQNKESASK
Protocol: The Aurora A catalytic domain with an N-terminal GST tag was constructed in pBacPAK8 plasmid and expressed in sf9 cells. […] To concentrate GST-tAurora A, buffer was replaced with Tris buffer (100 mM Tris (pH 7.5), 300 mM NaCl, 1 mM EDTA, 4 mM DTT) using Amicon ultra-15 (MWCO:30K, Millipore) to 2.4 mg/ml. After the addition of equal volume of glycerol and 0.04% Triton X-100, the proteins were stored aliquoted at −80° C.
Briefly, a test compound, enzyme, substrate-tetra(LRRWSLG), DTT and ATP were dissolved in Aur buffer (50 mM Tris-HCl pH 7.4, 10 mM NaCl, 10 mM MgCl2, and 100 μg/ml BSA) individually before the assay. […] 5 μM ATP (5 μl), 1 mM DTT (5 μl) and 0.1 mM tetra(LRRWSLG) peptide substrate (5 μl) were added into the reactions of test compounds and GST-tAurora A. The reactions were incubated at 37° C. for 90 min. 50 μl of Kinase-Glo Plus Reagent (V3771, Promega) was added into the reactions, followed by the incubation at 25° C. for 20 min.

HCT-116 cells = assay: HCT-116 cell viability, MTS assay; format: cell-based; settings: Homo sapiens, HCT-116, 96 h, 96-h incubation, MTS; read-out: IC50 values, HCT-116 cell viability
Protocol: HCT-116 cell viability was examined by the MTS assay (Promega, Madison, Wis., USA). 2000 HCT-116 cells in 100 μL McCoy's 5a medium were seeded in each well of a 96-well plate. After 96-h incubation with a test compound, the cells were incubated with 20 μL of a MTS/PMS mixture (MTS/PMS ratio: 20:1) for 2 h at 37° C. in a humidified incubator with 5% CO2 to allow viable cells to convert the tetrazolium salt (MTS) into formazan. The amount/concentration of formazan, which indicates the number of live cells, was determined by measuring the absorbance at 490 nm using a PerkinElmer Victor2 plate reader (PerkinElmer, Shelton, Conn., USA).

[1] = tested on: HCT-116 colon tumor xenograft; assay: In vivo anticancer efficacy in colon tumor xenograft mice (injected with HCT-116); design: species or system nude mice; settings: for tumor growth suppression (in words): versus VX-680 at 50 mg/kg
Protocol: In vivo anticancer efficacy of the compounds of this invention was assessed using colon tumor xenograft mice (injected with HCT-116), as described in Cancer Research 2004, 64, 4621-4628.
(§1) HCT-116 cells were injected via s.c. in nude mice to form colon tumor xenograft mice. Mice bearing tumors with a size of ˜100 mm^3 were randomly assigned to three groups: a vehicle control group (10 mice), a positive control group (10 mice), and a treatment group (21 mice). Of the treated mice, ten received Compound 3 at a daily dosage of 25 mg/kg via IV injection through the tail veins for 5 days/week for 2 consecutive weeks (days 1-5 and 8-12) and eleven received the same compound at a daily dosage of 50 mg/kg via IV injection through the tail veins for 5 consecutive days (days 1-5). The positive control mice received VX-680 (a known anti-cancer drug) at a daily dosage of 50 mg/kg, also via IV injection through the tail veins for 5 days/week for 2 consecutive weeks (days 1-5 and 8-12).
as §1, with “Compound 4” for “Compound 3”, “of 5 mg/kg and eleven received the same compound at a daily dosage of 15” for “of 25”, “and 8-12).” for “and 8-12) and eleven received the same compound at a daily dosage of 50 mg/kg via IV injection through the tail veins for 5 consecutive days (days 1-5).”, “VX-680” for “VX-680 (a known anti-cancer drug)”

| Compound | IC50 (Aurora A) | IC50 (HCT-116 cells) | tumor size as % of that in the vehicle control group ([1]; 25 mg/kg daily IV, days 1-5 and 8-12, 22nd day post treatment) | tumor size as % of that in the vehicle control group ([1]; 50 mg/kg daily IV, days 1-5, 22nd day post treatment) | tumor growth suppression (in words) ([1]; dosages of 25 and 50 mg/kg IV) | tumor size as % of that in the vehicle control group ([1]; 5 mg/kg daily IV, days 1-5 and 8-12, 22nd day post treatment) | tumor size as % of that in the vehicle control group ([1]; 15 mg/kg daily IV, days 1-5 and 8-12, 22nd day post treatment) | tumor growth suppression (in words) ([1]; dosage of 15 mg/kg IV) | tumor size as % of that in the vehicle control animals ([1]; 50 mg/kg daily IV, days 1-5 and 8-12, 22nd day post treatment) |
| --- | --- | --- | --- | --- | --- | --- | --- | --- | --- |
| COc1cc2ncnc(NCCc3ccc(NC(=O)Nc4ccccc4CN(C)C)cc3)c2cc1OC [Compound 3, 1-{4-[2-(6,7-Dimethoxy-quinazolin-4-ylamino)-ethyl]-phenyl}-3-(2-dimethylaminomethyl-phenyl)-urea] | < 1000 nM and 51 to 450 nM | < 100 nM | 35% | 36% | suppressed tumor growth significantly and better than VX-680 |  |  |  |  |
| CN(C)CCCOc1ccc2c(NCCc3ccc(NC(=O)Nc4ccccc4)cc3)ncnc2c1 [Compound 4, 1-(4-{2-[7-(3-Dimethylamino-propoxy)-quinazolin-4-ylamino]-ethyl}-phenyl)-3-phenyl-urea] | < 1000 nM and 51 to 450 nM | < 100 nM |  |  |  | 67% | 37% | suppressed tumor growth significantly and better than VX-680 |  |
| O=C(Nc1ccccc1)Nc1ccc(CCNc2ncnc3cc(F)ccc23)cc1 [Compound 253] | 51 to 450 nM and < 1000 nM | < 100 nM |  |  |  |  |  |  |  |
| Cc1cc(Nc2cc(N3CCN(C)CC3)nc(Sc3ccc(NC(=O)C4CC4)cc3)n2)n[nH]1 [VX-680, reference compound] |  |  |  |  |  |  |  |  | 50% |
